Patent publication US9688733B2, “Method for treating spinal cord injury using HMGB1 fragment” (GENOMIX CO., LTD, priority 2012, dated 2017)
Entries after “also recorded” stand apart in the source; their conditions may differ.

What was measured:
[1] = system: mouse bone marrow mesenchymal stem cell line (MSC-1 cell); test: Migration-promoting activity in chemotaxis chamber; assay type: cell-based; details: MSC-1 cells; for migration-promoting activity: 100 μg/ml in lower chamber, positive control full-length mouse HMGB1 (1-215(HEK)), FIG. 1A
Protocol: The peptides listed below were custom synthesized using the solid phase method by Medical & Biological Laboratories (MBL). The peptides were synthesized based on the mouse HMGB1 sequence. Amino acid sequences from positions 1 to 169 of mouse HMGB1 and human HMGB1 are identical, i.e., shares 100% sequence homology.
the full-length mouse HMGB1 produced in HEK293 (1-215(HEK)) as a positive control were adjusted to 100 μg/ml and placed in the lower chamber of a chemotaxis chamber to assess the migration-promoting activity on mouse bone marrow mesenchymal stem cell line (MSC-1 cell; produced by Osaka University, Tamai et al., (Tamai et al., Proc Natl Acad Sci USA., 108(16): 6609-6614, 2011)). (Results)
As positive controls, centrifuged supernatant of the skin of a one-day-old mouse (one individual) incubated in PBS at 4° C. for 12 hours, and the full-length mouse HMGB1 produced in HEK293 (1-215(HEK)) were used. Cells of a bone marrow mesenchymal stem cell line (MSC-1) were placed in the upper chamber of a chemotaxis chamber, and the protein and synthetic peptides were added at a concentration of 5 μM or 10 μM to the lower chamber of the chemotaxis chamber. The migration assay was carried out by the same method as described above.

[2] = system: C57BL6/J mice with traumatic injury of the spinal cord; test: Neurologic symptoms (Basso Mouse Scale score) in mice with traumatic injury of the spinal cord; assay type: in vivo; details: five daily administrations
From the text: (§1) Seven-week-old female C57BL6/J mice were used as test animals. After the mice were anesthetized by isoflurane inhalation, skin incision was made along the dorsal midline, and the vertebral arch of the ninth thoracic vertebra was exposed and excised. Dura mater was exposed at the same site, and the spinal cord was held epidurally for three seconds using a microneedle holder to produce a traumatic injury of the spinal cord. After generation of injury of the spinal cord, the skin was sutured. […] The assay reagent was prepared by diluting 100 μg of an HMGB1 fragment (amino acid sequence: amino acids of positions 11 to 44; synthesized peptide produced at MBL) in 200 μL of Dulbecco's PBS (D-PBS). 200 μL of D-PBS was used for the negative control. On the next day of operation, the first administration was performed through the tail vein, and this was followed by a total of five daily administrations. Neurologic symptoms were assessed using the Basso Mouse Scale (BMS) score on Days 1, 3, 7, 10, 14, 17, and 21 post operation.
Seven-week-old female C57BL6/J mice were used as test animals. After the mice were anesthetized by isoflurane inhalation, skin incision was made along the dorsal midline, and the vertebral arch of the ninth thoracic vertebra was exposed and excised. Dura mater was exposed at the same site, and the spinal cord was held epidurally for three seconds using a microneedle holder to produce a traumatic injury of the spinal cord. After production of injury of the spinal cord, the skin was sutured. […] An HMGB1 fragment (amino acid sequence: the amino acids of positions 11 to 44; synthetic peptide produced at MBL) was prepared by diluting 100 μg of the fragment in 200 μL of Dulbecco's PBS (D-PBS). The full-length HMGB1 protein was produced by expressing it in HEK293 as reported previously, and the purified HMGB1 (100 μg) was dissolved in 200 μL of D-PBS. 200 μL of D-PBS was used for the negative control. On the next day of operation, the first administration was performed through the tail vein, and this was followed by a total of five daily administrations. Neurologic symptoms were assessed using the BMS score on Days 1, 3, 7, and 14 post operation.
Seven-week-old female C57BL6/J mice were used as test animals. The mice were anesthetized by isoflurane inhalation, skin incision was made along the dorsal midline, and the vertebral arch of the ninth thoracic vertebra was exposed and excised. Dura mater was exposed at the same site, and the spinal cord was held epidurally for three seconds using a microneedle holder to produce a traumatic injury of the spinal cord. After production of injury of the spinal cord, the skin was sutured. […] HMGB1 fragments (amino acid sequences: amino acids from positions 11 to 44 and amino acids from positions 1 to 44; synthetic peptides produced at MBL) were prepared by diluting 100 μg of the fragment in 200 μL of D-PBS. 200 μL of D-PBS was used for the negative control. On the next day of operation, the first administration was performed via the tail vein, and this was followed by a total of five daily administrations. Neurologic symptoms were assessed using the BMS score on Days 1, 3, 7, 10, 14, 17, 21, and 28 post operation.

[3] = system: C57BL6/J mice with traumatic injury of the spinal cord; test: HE staining of the damaged region of the spinal cord; assay type: in vivo, mouse; details: Example 2, 100 μg tail vein, five daily administrations, vs negative control (PBS), FIG. 2B
From the text: as §1

synthetic peptide (11-34): synthetic peptide consisting of the amino acid sequence from positions 11 to 34 of HMGB1 (GKMSSYAFFVQTCREEHKKKHPDA; UniProt P63158 11-34, looked up, fragment)
migration-promoting activity [1]: activity comparable to or higher than that of the positive control

synthetic peptide (11-44): synthetic peptide consisting of the amino acid sequence from positions 11 to 44 of HMGB1 (SEQ ID NO: 4) (GKMSSYAFFVQTCREEHKKKHPDASVNFSEFSKK; Synthesized peptide from the HMGB1 protein)
migration-promoting activity [1]: activity comparable to or higher than that of the positive control | improvement of neurologic symptoms (BMS score) ([2]; Example 2, 100 μg in 200 μL D-PBS, tail vein, Days 1-21 post operation, vs PBS, FIG. 2A, listed as HMGB1 fragment): significant improvement of neurologic symptoms was observed from Day 3 post operation; also recorded: remarkable improvement of symptoms was observed on Days 3, 7, 14, and 17 post operation | improvement of neurologic symptoms (BMS score) ([2]; Example 2, 100 μg in 200 μL D-PBS, tail vein, Days 1-21 post operation, vs PBS, FIG. 2A, listed as HMGB1 fragment (11-44)): significant effects of improving neurologic symptoms were observed | improvement of neurologic symptoms (BMS score) ([2]; Example 3, 100 μg tail vein, Days 1, 3, 7, 14, fragment vs full-length vs PBS, FIG. 3, listed as HMGB1 fragment (amino acids at positions 11-44)): most effective; also recorded: much more satisfactory improvement of the therapeutic effect | improvement of neurologic symptoms (BMS score) ([2]; Example 4, 100 μg tail vein, Days 1-28 post operation, vs PBS, FIG. 4): therapeutic effects were observed; also recorded: effective in treating injury of the spinal cord | improvement of neurologic symptoms (BMS score) ([2]; Example 4, 100 μg tail vein, Days 1-28 post operation, vs PBS, FIG. 4, listed as HMGB1 fragment consisting of the amino acids from positions 11 to 44): comparable therapeutic effects | size of damaged region of the spinal cord (HE staining) ([3]; listed as HMGB1 fragment (11-44)): size of the area of injury of the spinal cord decreased | size of damaged region of the spinal cord (HE staining) ([3]; listed as HMGB1 fragment (11-44 peptide)): reduced

synthetic peptide (1-44): peptide consisting of the amino acids at positions 1 to 44 of the HMGB1 protein (SEQ ID NO: 5) (MGKGDPKKPRGKMSSYAFFVQTCREEHKKKHPDASVNFSEFSKK; Synthesized peptide from the HMGB1 protein)
migration-promoting activity [1]: activity comparable to or higher than that of the positive control | improvement of neurologic symptoms (BMS score) ([2]; Example 4, 100 μg tail vein, Days 1-28 post operation, vs PBS, FIG. 4, listed as 1-44): therapeutic effects were observed; also recorded: effective in treating injury of the spinal cord | improvement of neurologic symptoms (BMS score) ([2]; Example 4, 100 μg tail vein, Days 1-28 post operation, vs PBS, FIG. 4, listed as HMGB1 fragment consisting of the amino acids from positions 1 to 44): comparable therapeutic effects

synthetic peptide (11-25): synthetic peptide consisting of the amino acid sequence from positions 11 to 25 of HMGB1 (GKMSSYAFFVQTCRE; UniProt P63158 11-25, looked up, fragment)
migration-promoting activity [1]: found to have the activity

synthetic peptide (11-30): synthetic peptide consisting of the amino acid sequence from positions 11 to 30 of HMGB1 (GKMSSYAFFVQTCREEHKKK; UniProt P63158 11-30, looked up, fragment)
migration-promoting activity [1]: activity comparable to or higher than that of the positive control

synthetic peptide (17-25): synthetic peptide consisting of the amino acid sequence from positions 17 to 25 of HMGB1 (SEQ ID NO: 3) (AFFVQTCRE; Synthesized peptide from the HMGB1 protein)
migration-stimulating activity ([1]; 5 μM or 10 μM in lower chamber, FIG. 1B): smallest fragment with migration-stimulating activity; also recorded: smallest fragment that has the migration-stimulating activity

synthetic peptide (1-34): synthetic peptide consisting of the amino acid sequence from positions 1 to 34 of HMGB1 (MGKGDPKKPRGKMSSYAFFVQTCREEHKKKHPDA; UniProt P63158 1-34, looked up, fragment)
migration-promoting activity [1]: activity comparable to or higher than that of the positive control

B1: full-length HMGB1: full-length HMGB1 protein produced by expressing it in HEK293, purified; positive control / comparator (protein, UniProt P63158 1-215, looked up)
chain: MGKGDPKKPRGKMSSYAFFVQTCREEHKKKHPDASVNFSEFSKKCSERWKTMSAKEKGKFEDMAKADKARYEREMKTYIPPKGETKKKFKDPNAPKRPPSAFFLFCSEYRPKIKGEHPGLSIGDVAKKLGEMWNNTAADDKQPYEKKAAKLKEKYEKDIAAYRAKGKPDAAKKGVVKAEKSKKKKEEEDDEEDEEDEEEEEEEEDEDEEEDDDDE
modifications: full-length
notes: full-length HMGB1 protein produced by expressing it in HEK293, purified; positive control / comparator
improvement of neurologic symptoms (BMS score) ([2]; Example 3, 100 μg tail vein, Days 1, 3, 7, 14, fragment vs full-length vs PBS, FIG. 3): intermediate between the effect in the HMGB1 fragment (amino acids at positions 11-44)-administered group and that in the negative control group | improvement of neurologic symptoms (BMS score) ([2]; Example 3, 100 μg tail vein, Days 1, 3, 7, 14, fragment vs full-length vs PBS, FIG. 3, listed as HMGB1 (full-length)): therapeutic effect was observed; also recorded: not as effective as that in the HMGB1 fragment
